The text below walks through data of paper PMC6973281 (2019).

The test system of experiment [1] is 22AG (DNA, G4) AGGGTTAGGGTTAGGGTTAGGG
Description: spectrophotometric titration. To be noted: K+ 73 mM; K-phosphate buffer pH 7.0, 5 % v/v DMSO, 20 °C; 5 μM compound; isotherm could not be fitted.

The test system is the same in experiment [2]. Description: spectrophotometric titration, independent-site fit. To be noted: K+ 73 mM; K-phosphate buffer pH 7.0, 5 % v/v DMSO, 20 °C; 5 μM compound; unit not given.

For `CCOC(=O)c1csc(/N=N/c2nc(C(=O)OCC)c(NCCCN(C)C)s2)n1`, the binding result in experiment [1] was “weak”.

Turning to `CCOC(=O)c1nc(/N=N/c2nc(C(=O)OCC)c(NCCCN(C)C)s2)sc1NCCCN(C)C`, the “K 22AG” value in experiment [2] is on record as 2.4×10^4.
